Results reported in paper PMC5321434, “Dihydrobenz[e][1,4]oxazepin-2(3H)-ones, a new anthelmintic chemotype immobilising whipworm and reducing infectivity in vivo” (PLoS Neglected Tropical Diseases, 2017).

System: adult T. muris
Assay: Ex vivo adult T. muris automated motility assay (primary/secondary screen at 100 μM and dose-response)
Parameters: species or system Trichuris muris
Conditions: for PRIMARY_SCREEN_MINUS_LOG_FOLD_CHANGE_MOVEMENT: primary screen; for PRIMARY_SCREEN_MINUS_LOG_FOLD_CHANGE_MOVEMENT / SECONDARY_SCREEN_MINUS_LOG_FOLD_CHANGE_MOVEMENT: adult T. muris motility; for SECONDARY_SCREEN_MINUS_LOG_FOLD_CHANGE_MOVEMENT: secondary screen
Method: Severe combined immune deficiency (SCID) mice were bred in the Biological Services Facility at the University of Manchester. Both male and female SCID mice were infected with a high dose of 200 infective embryonated T. muris eggs via oral gavage. At day 35 post-infection, groups of 5 mice were killed and their […] colons removed. Guts were opened longitudinally, washed with pre-warmed Roswell Park Memorial Institute (RPMI) 1640 media supplemented with penicillin (500U/ml) and streptomycin (500μg/ml) and adult T. muris worms gently removed using fine forceps. Worms removed from SCID mice were maintained in RPMI-1640 media supplemented with penicillin (500U/ml) and streptomycin (500μg/ml) at approximately 37°C and studied on the same day. Using fine forceps, individual live worms were placed into 96 well plates containing 75μl of RPMI-1640 medium supplemented with penicillin (500U/ml) and streptomycin (500μg/ml) plus 1% final concentration of DMSO or compound dissolved in DMSO. In the primary screen the test compound concentration was 100μM. Plates were then incubated at 37°C, 5% CO2, and motility was analysed after 24 hours. Worm movement was quantified using an automated motility assay. This system gives an estimate of worm movement in each well by thresholding and quantifying pixel intensity variance over time. An earlier version of this system has been previously described. One adult T. muris worm was used per well, with one well per compound in each replicate of the primary screen. The primary screen was repeated each week for a period of four weeks giving four independent biological replicates from separate parasite batches for each compound. Dose-response curves were calculated with the four factor log-logistic model using the R package drc. The primary screen was carried out at 100μM final concentration. Assay plates were assigned unique IDs and statistical analysis was performed without knowledge of compound identities using R scripts. Once hit wells were identified, well/plate positions were mapped to compound identities using DataWarrior [28]. […] Compounds identified as having encouraging activity from the DMSO solution samples were then resynthesized for confirmatory testing.

[1] = combined primary and secondary screen minus log fold change in movement, adult T. muris, 100 μM

Structure (SMILES)	COMBINED_SCREEN_ACTIVITY [1]	PRIMARY_SCREEN_MINUS_LOG_FOLD_CHANGE_MOVEMENT (100 μM)	COMBINED_SCREEN_ACTIVITY (adult T. muris motility screen at 100 μM, combines primary and secondary screen minus log fold change in movement (mean where both are given))	SECONDARY_SCREEN_MINUS_LOG_FOLD_CHANGE_MOVEMENT (100 μM)
O=C1COCc2ccccc2N1Cc1ccccc1Cl [Compound 21]	-1.647	-1.647	–	–
COCc1cccc(-c2ccc3c(c2)N(CC2CC2)C(=O)COC3)c1 [Compound 63]	-1.629	-1.629	–	–
COc1ccc(CN2C(=O)COCc3ccccc32)cc1 [Compound 14]	-1.77	-1.77	–	–
COCCN1C(=O)COCc2ccc(Br)cc21 [Compound 31]	-1.486	-1.486	–	–
O=C1COCc2cc(Br)ccc2N1CCN1CCOCC1 [Compound 91]	-2.221	-2.221	–	–
COc1cc(F)ccc1-c1ccc2c(c1)COCC(=O)N2CCN1CCOCC1 [Compound 161]	-1.617	-1.617	–	–
COc1ccc(-c2ccc3c(c2)N(Cc2ccccc2)C(=O)COC3)cc1 [Compound 100]	3.027	3.027	–	–
Cc1ccc(-c2ccc3c(c2)COCC(=O)N3Cc2ccc(C(=O)N(C)C)cc2)cc1C [Compound 186]	–	10.5493	10.5493	–
O=C1COCc2ccc(-c3cc(F)cc(Cl)c3)cc2N1CCN1CCOCC1 [Compound 176]	-1.404	-1.404	–	–
COc1ccc(-c2ccc3c(c2)N(CC2CC2)C(=O)COC3)cc1 [Compound 43]	3.877	3.877	–	–
Cc1ccccc1-c1ccc2c(c1)COCC(=O)N2CCN1CCOCC1 [Compound 111]	-0.2494	-0.2494	–	–
COc1cccc(CN2C(=O)COCc3ccc(-c4cccc(F)c4)cc32)c1 [Compound 131]	-0.1165	-0.1165	–	–
COc1cccc(CN2C(=O)COCc3cc(-c4cnn(C)c4)ccc32)c1 [Compound 105]	-0.2739	-0.55	–	0.002295
CC(C)N1C(=O)COCc2cc(Br)ccc21 [Compound 17]	-0.6442	-0.6442	–	–
COc1ccc(F)cc1-c1ccc2c(c1)COCC(=O)N2CCc1ccccc1 [Compound 145]	-1.739	-1.739	–	–
COCc1cccc(-c2ccc3c(c2)COCC(=O)N3Cc2cccc(OC)c2)c1 [Compound 170]	-0.3892	-0.3892	–	–
O=C1COCc2ccc(-c3cccnc3)cc2N1CCN1CCOCC1 [Compound 86]	-1.564	-1.564	–	–
N#Cc1cccc(-c2ccc3c(c2)N(CCN2CCOCC2)C(=O)COC3)c1 [Compound 132]	-2.183	-2.183	–	–
Cn1cc(-c2ccc3c(c2)N(Cc2ccccc2Cl)C(=O)COC3)cn1 [Compound 114]	1.278	1.278	–	–
COc1cc(F)ccc1-c1ccc2c(c1)COCC(=O)N2Cc1cc(F)cc(F)c1 [Compound 182]	-0.8244	-0.8244	–	–
O=C1COCc2cc(-c3cccnc3)ccc2N1CCc1ccccc1 [Compound 73]	3.006	3.006	–	–
O=C1COCc2ccc(-c3cccc(O)c3)cc2N1Cc1ccccc1Cl [Compound 133]	-0.006244	-0.006244	–	–
CC(C)N1C(=O)COCc2ccc(-c3ccccc3)cc21 [Compound 12]	1.691	1.691	–	–
Cn1cc(-c2ccc3c(c2)COCC(=O)N3CC2CCCCC2)cn1 [Compound 67]	7.315	2.012	–	12.6188
COCCN1C(=O)COCc2ccc(-c3ccccc3)cc21 [Compound 28]	-0.7597	-1.727	–	0.2076
COc1ccc(F)cc1-c1ccc2c(c1)COCC(=O)N2CCN1CCOCC1 [Compound 163]	-0.1485	-0.1485	–	–
